Results from BigSolDB 2.1.

Compound: O=[N+]([O-])c1ccc(Oc2ccc([N+](=O)[O-])cc2)cc1
- solubility (mole fraction) (in 1,4-dioxane, 283.15 K): 0.026
- solubility (mole fraction) (in 1,4-dioxane, 288.15 K): 0.0325
- solubility (mole fraction) (in 1,4-dioxane, 293.15 K): 0.0409
- solubility (mole fraction) (in 1,4-dioxane, 298.15 K): 0.0489
- solubility (mole fraction) (in 1,4-dioxane, 303.15 K): 0.0575
- solubility (mole fraction) (in 1,4-dioxane, 308.15 K): 0.0674
- solubility (mole fraction) (in 1,4-dioxane, 313.15 K): 0.08
- solubility (mole fraction) (in 1,4-dioxane, 318.15 K): 0.0922
- solubility (mole fraction) (in 1,4-dioxane, 323.15 K): 0.11
- solubility (mole fraction) (in 1-methoxy-2-propanol, 283.15 K): 0.00539
- solubility (mole fraction) (in 1-methoxy-2-propanol, 288.15 K): 0.00657
- solubility (mole fraction) (in 1-methoxy-2-propanol, 293.15 K): 0.0071
- solubility (mole fraction) (in 1-methoxy-2-propanol, 298.15 K): 0.00864
- solubility (mole fraction) (in 1-methoxy-2-propanol, 303.15 K): 0.00979
- solubility (mole fraction) (in 1-methoxy-2-propanol, 308.15 K): 0.0114
- solubility (mole fraction) (in 1-methoxy-2-propanol, 313.15 K): 0.0137
- solubility (mole fraction) (in 1-methoxy-2-propanol, 318.15 K): 0.0162
- solubility (mole fraction) (in 1-methoxy-2-propanol, 323.15 K): 0.0198
- solubility (mole fraction) (in 2-methoxyethanol, 283.15 K): 0.00657
- solubility (mole fraction) (in 2-methoxyethanol, 288.15 K): 0.00753
- solubility (mole fraction) (in 2-methoxyethanol, 293.15 K): 0.00823
- solubility (mole fraction) (in 2-methoxyethanol, 298.15 K): 0.0103
- solubility (mole fraction) (in 2-methoxyethanol, 303.15 K): 0.0116
- solubility (mole fraction) (in 2-methoxyethanol, 308.15 K): 0.0131
- solubility (mole fraction) (in 2-methoxyethanol, 313.15 K): 0.0158
- solubility (mole fraction) (in 2-methoxyethanol, 318.15 K): 0.0182
- solubility (mole fraction) (in 2-methoxyethanol, 323.15 K): 0.022
- solubility (mole fraction) (in DMAc, 283.15 K): 0.0802
- solubility (mole fraction) (in DMAc, 288.15 K): 0.0866
- solubility (mole fraction) (in DMAc, 293.15 K): 0.0913
- solubility (mole fraction) (in DMAc, 298.15 K): 0.103
- solubility (mole fraction) (in DMAc, 303.15 K): 0.115
- solubility (mole fraction) (in DMAc, 308.15 K): 0.126
- solubility (mole fraction) (in DMAc, 313.15 K): 0.144
- solubility (mole fraction) (in DMAc, 318.15 K): 0.164
- solubility (mole fraction) (in DMAc, 323.15 K): 0.184
- solubility (mole fraction) (in DMF, 283.15 K): 0.0524
- solubility (mole fraction) (in DMF, 288.15 K): 0.0612
- solubility (mole fraction) (in DMF, 293.15 K): 0.0663
- solubility (mole fraction) (in DMF, 298.15 K): 0.077
- solubility (mole fraction) (in DMF, 303.15 K): 0.0883
- solubility (mole fraction) (in DMF, 308.15 K): 0.0933
- solubility (mole fraction) (in DMF, 313.15 K): 0.111
- solubility (mole fraction) (in DMF, 318.15 K): 0.126
- solubility (mole fraction) (in DMF, 323.15 K): 0.152
- solubility (mole fraction) (in acetic acid, 283.15 K): 0.00292
- solubility (mole fraction) (in acetic acid, 288.15 K): 0.00347
- solubility (mole fraction) (in acetic acid, 293.15 K): 0.00366
- solubility (mole fraction) (in acetic acid, 298.15 K): 0.00469
- solubility (mole fraction) (in acetic acid, 303.15 K): 0.00525
- solubility (mole fraction) (in acetic acid, 308.15 K): 0.00612
- solubility (mole fraction) (in acetic acid, 313.15 K): 0.0072
- solubility (mole fraction) (in acetic acid, 318.15 K): 0.00835
- solubility (mole fraction) (in acetic acid, 323.15 K): 0.0103
- solubility (mole fraction) (in acetone, 283.15 K): 0.0155
- solubility (mole fraction) (in acetone, 288.15 K): 0.0173
- solubility (mole fraction) (in acetone, 293.15 K): 0.0197
- solubility (mole fraction) (in acetone, 298.15 K): 0.0246
- solubility (mole fraction) (in acetone, 303.15 K): 0.0281
- solubility (mole fraction) (in acetone, 308.15 K): 0.0333
- solubility (mole fraction) (in acetone, 313.15 K): 0.0401
- solubility (mole fraction) (in acetone, 318.15 K): 0.0484
- solubility (mole fraction) (in acetone, 323.15 K): 0.0571
- solubility (mole fraction) (in acetonitrile, 283.15 K): 0.00446
- solubility (mole fraction) (in acetonitrile, 288.15 K): 0.00587
- solubility (mole fraction) (in acetonitrile, 293.15 K): 0.00682
- solubility (mole fraction) (in acetonitrile, 298.15 K): 0.00926
- solubility (mole fraction) (in acetonitrile, 303.15 K): 0.0104
- solubility (mole fraction) (in acetonitrile, 308.15 K): 0.0129
- solubility (mole fraction) (in acetonitrile, 313.15 K): 0.0158
- solubility (mole fraction) (in acetonitrile, 318.15 K): 0.0195
- solubility (mole fraction) (in acetonitrile, 323.15 K): 0.0241
- solubility (mole fraction) (in anisole, 283.15 K): 0.0243
- solubility (mole fraction) (in anisole, 288.15 K): 0.0293
- solubility (mole fraction) (in anisole, 293.15 K): 0.0339
- solubility (mole fraction) (in anisole, 298.15 K): 0.0395
- solubility (mole fraction) (in anisole, 303.15 K): 0.0444
- solubility (mole fraction) (in anisole, 308.15 K): 0.0547
- solubility (mole fraction) (in anisole, 313.15 K): 0.0647
- solubility (mole fraction) (in anisole, 318.15 K): 0.0746
- solubility (mole fraction) (in anisole, 323.15 K): 0.0893
- solubility (mole fraction) (in ethanol, 283.15 K): 0.00035
- solubility (mole fraction) (in ethanol, 288.15 K): 0.000369
- solubility (mole fraction) (in ethanol, 293.15 K): 0.000418
- solubility (mole fraction) (in ethanol, 298.15 K): 0.000531
- solubility (mole fraction) (in ethanol, 303.15 K): 0.000631
- solubility (mole fraction) (in ethanol, 308.15 K): 0.000807
- solubility (mole fraction) (in ethanol, 313.15 K): 0.00102
- solubility (mole fraction) (in ethanol, 318.15 K): 0.00124
- solubility (mole fraction) (in ethanol, 323.15 K): 0.0015
- solubility (mole fraction) (in ethyl acetate, 283.15 K): 0.0133
- solubility (mole fraction) (in ethyl acetate, 288.15 K): 0.015
- solubility (mole fraction) (in ethyl acetate, 293.15 K): 0.0172
- solubility (mole fraction) (in ethyl acetate, 298.15 K): 0.0206
- solubility (mole fraction) (in ethyl acetate, 303.15 K): 0.0228
- solubility (mole fraction) (in ethyl acetate, 308.15 K): 0.0266
- solubility (mole fraction) (in ethyl acetate, 313.15 K): 0.0316
- solubility (mole fraction) (in ethyl acetate, 318.15 K): 0.036
- solubility (mole fraction) (in ethyl acetate, 323.15 K): 0.0422
- solubility (mole fraction) (in isopropanol, 283.15 K): 0.000139
- solubility (mole fraction) (in isopropanol, 288.15 K): 0.000199
- solubility (mole fraction) (in isopropanol, 293.15 K): 0.000222
- solubility (mole fraction) (in isopropanol, 298.15 K): 0.000322
- solubility (mole fraction) (in isopropanol, 303.15 K): 0.000394
- solubility (mole fraction) (in isopropanol, 308.15 K): 0.000538
- solubility (mole fraction) (in isopropanol, 313.15 K): 0.000779
- solubility (mole fraction) (in isopropanol, 318.15 K): 0.000996
- solubility (mole fraction) (in isopropanol, 323.15 K): 0.00136
- solubility (mole fraction) (in methanol, 283.15 K): 0.000259
- solubility (mole fraction) (in methanol, 288.15 K): 0.000329
- solubility (mole fraction) (in methanol, 293.15 K): 0.000376
- solubility (mole fraction) (in methanol, 298.15 K): 0.000525
- solubility (mole fraction) (in methanol, 303.15 K): 0.000637
- solubility (mole fraction) (in methanol, 308.15 K): 0.000804
- solubility (mole fraction) (in methanol, 313.15 K): 0.00095
- solubility (mole fraction) (in methanol, 318.15 K): 0.00115
- solubility (mole fraction) (in methanol, 323.15 K): 0.00145
- solubility (mole fraction) (in n-butanol, 283.15 K): 0.000203
- solubility (mole fraction) (in n-butanol, 288.15 K): 0.000337
- solubility (mole fraction) (in n-butanol, 293.15 K): 0.00049
- solubility (mole fraction) (in n-butanol, 298.15 K): 0.000661
- solubility (mole fraction) (in n-butanol, 303.15 K): 0.000826
- solubility (mole fraction) (in n-butanol, 308.15 K): 0.00111
- solubility (mole fraction) (in n-butanol, 313.15 K): 0.00144
- solubility (mole fraction) (in n-butanol, 318.15 K): 0.00183
- solubility (mole fraction) (in n-butanol, 323.15 K): 0.00241
